ChEMBL document CHEMBL3039007, “Structure-based identification of OATP1B1/3 inhibitors” (Mol Pharmacol, 2013)
Where a name gives a salt, the structure may show the parent alone. Starred links: 1 amine or outer side, 2 acyl side, 3 side chain; linkers in the order of their positions; H or OH if unused. Positions of bridges follow the written chain, without caps; N, C: chain ends. Non-standard residues stand in square brackets, D forms with d. Residues, ends and D or L forms follow the SMILES beside them. ξ: configuration not given here. *: point of attachment. X1 = N=C1NCCC([C@H](N[*:1])C(=O)[*:2])N1; ΔAla(Z-3-ureido) = NC(=O)N/C=C(\N)C(=O)O; ξβ3hOrn = NCCCC(N)CC(=O)*; Dap = NC[C@H](N)C(=O)O

What was measured:
[1] = target: T1, Solute carrier organic anion transporter family member 1B3 (Homo sapiens, UniProt Q9NPD5); conditions: chinese hamster, cho, 10 µM
T1 sequence (Q9NPD5 whole entry): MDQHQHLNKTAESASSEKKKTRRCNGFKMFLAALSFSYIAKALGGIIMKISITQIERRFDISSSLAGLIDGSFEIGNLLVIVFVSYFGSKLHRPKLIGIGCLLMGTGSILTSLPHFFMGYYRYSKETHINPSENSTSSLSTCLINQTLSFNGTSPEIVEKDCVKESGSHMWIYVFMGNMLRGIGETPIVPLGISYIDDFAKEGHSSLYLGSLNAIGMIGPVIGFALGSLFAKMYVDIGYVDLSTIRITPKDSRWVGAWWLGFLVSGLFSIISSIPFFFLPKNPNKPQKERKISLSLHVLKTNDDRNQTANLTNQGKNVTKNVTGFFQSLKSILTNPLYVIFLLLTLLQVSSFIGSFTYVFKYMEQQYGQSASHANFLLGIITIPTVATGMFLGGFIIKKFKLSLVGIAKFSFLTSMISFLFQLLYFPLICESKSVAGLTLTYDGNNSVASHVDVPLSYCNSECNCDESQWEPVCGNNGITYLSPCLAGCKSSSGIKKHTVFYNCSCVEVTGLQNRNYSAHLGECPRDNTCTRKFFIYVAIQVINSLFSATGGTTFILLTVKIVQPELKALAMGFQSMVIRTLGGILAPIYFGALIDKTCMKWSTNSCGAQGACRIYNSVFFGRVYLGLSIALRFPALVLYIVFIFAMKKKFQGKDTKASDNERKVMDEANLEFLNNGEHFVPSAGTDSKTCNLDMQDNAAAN

[2] = target: T2, Solute carrier organic anion transporter family member 1B1 (Homo sapiens, UniProt Q9Y6L6); conditions: chinese hamster, cho, 10 µM
T2 sequence (Q9Y6L6 whole entry): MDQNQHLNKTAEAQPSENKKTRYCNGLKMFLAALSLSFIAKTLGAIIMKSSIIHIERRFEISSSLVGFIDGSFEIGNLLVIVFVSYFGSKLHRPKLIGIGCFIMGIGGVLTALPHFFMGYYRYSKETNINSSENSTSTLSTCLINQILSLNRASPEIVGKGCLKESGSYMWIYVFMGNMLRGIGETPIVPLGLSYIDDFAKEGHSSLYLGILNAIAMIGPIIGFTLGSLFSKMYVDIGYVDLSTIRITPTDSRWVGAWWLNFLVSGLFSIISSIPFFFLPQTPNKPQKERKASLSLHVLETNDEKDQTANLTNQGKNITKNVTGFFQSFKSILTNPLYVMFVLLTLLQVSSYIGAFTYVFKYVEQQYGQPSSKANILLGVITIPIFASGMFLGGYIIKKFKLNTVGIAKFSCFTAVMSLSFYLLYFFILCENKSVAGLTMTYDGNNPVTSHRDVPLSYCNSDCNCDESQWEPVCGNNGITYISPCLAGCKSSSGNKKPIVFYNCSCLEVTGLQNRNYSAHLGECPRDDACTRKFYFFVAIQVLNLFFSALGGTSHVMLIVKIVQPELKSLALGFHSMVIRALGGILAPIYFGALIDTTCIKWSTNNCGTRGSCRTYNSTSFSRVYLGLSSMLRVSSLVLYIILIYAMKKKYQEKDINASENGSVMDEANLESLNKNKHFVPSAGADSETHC

SMILES	residual activity [1]	residual activity [2]
C[C@H]1C[C@H]2[C@@H]3CCC4=CC(=O)C=C[C@]4(C)[C@@]3(F)[C@@H](O)C[C@]2(C)[C@@]1(O)C(=O)CO [BETAMETHASONE]	102.7%	76.17%
O=C(O)CCNC(=O)c1ccccc1 [BETAMIPRON]	92.61%	116.1%
CC(C[N+](C)(C)C)OC(N)=O.[Cl-] (stereo not drawn) [BETHANECHOL CHLORIDE]	100%	111.1%
C[N+]1(C)C[C@@H](O)C[C@@H]1C(=O)[O-] [BETONICINE]	105.3%	89.8%
C=C(C)[C@@H]1CC[C@]2(C(=O)O)CC[C@]3(C)[C@H](CC[C@@H]4[C@@]5(C)CC[C@H](O)C(C)(C)[C@@H]5CC[C@]43C)[C@@H]12 [BETULINIC ACID]	38.62%	25.94%
C=C(C)[C@@H]1CC[C@]2(CO)CC[C@]3(C)[C@H](CC[C@@H]4[C@@]5(C)CC[C@H](O)C(C)(C)[C@@H]5CC[C@]43C)[C@@H]12 [BETULIN]	92.43%	106.3%
CC(C)(Oc1ccc(CCNC(=O)c2ccc(Cl)cc2)cc1)C(=O)O [BEZAFIBRATE]	74.47%	72.82%
c1ccc(-c2ccc(C(c3ccccc3)n3ccnc3)cc2)cc1 (stereo not drawn) [BIFONAZOLE]	115.7%	121.1%
COc1ccc(-c2coc3cc(OC)cc(OC)c3c2=O)cc1 [BIOCHANIN A, DIMETHYL ETHER]	81.69%	100.7%
COc1ccc(-c2coc3cc(O)cc(O)c3c2=O)cc1 [BIOCHANIN]	113.5%	98.38%
O=C(O)CCCC[C@@H]1SC[C@@H]2NC(=O)N[C@@H]21 [BIOTIN]	96.7%	93.06%
CC(=O)O[C@@](C)(CCC=C(C)C)C1CC=C(C)CC1 (stereo partly drawn) [BISABOLOL ACETATE]	92.66%	80.65%
CC(=O)Oc1ccc(C(c2ccc(OC(C)=O)cc2)c2ccccn2)cc1 [BISACODYL]	103.3%	97.08%
CCc1ccc2c(O)c3c(cc2c1C(=O)OC)C(=O)c1c(O)ccc(O)c1C3=O [BISANHYDRORUTILANTINONE]	115.2%	104.1%
O=C(/C=C/C(=O)Oc1ccccc1C(=O)O)Oc1ccccc1C(=O)O [BISSALICYL FUMARATE]	99.92%	104.8%
COc1cc2c(cc1O)C[C@H]1c3c(cc(O)c(OC)c3-2)CCN1C [BOLDINE]	100.1%	47.95%
O=C1C=C2CC3(O)COc4cc(O)ccc4C3=C2C=C1O (stereo not drawn) [BRAZILEIN]	95.51%	96.33%
Oc1ccc2c(c1)OC[C@]1(O)Cc3cc(O)c(O)cc3[C@H]21 [BRAZILIN]	101.4%	117.2%
CC(=O)[C@H]1CC[C@H]2[C@@H]3CC[C@H]4C[C@H](O)CC[C@]4(C)[C@H]3CC[C@]12C [BREXANOLONE]	89.68%	41.5%
CN(Cc1cc(Br)cc(Br)c1N)C1CCCCC1.Cl [BROMHEXINE HYDROCHLORIDE]	95.98%	103.1%
CC1(C)CC2C1CC[C@]1(CBr)CCC3C(CC(=O)O)C(=O)O[C@@]32C1 (stereo partly drawn) [BROMO-3-HYDROXY-4-(SUCCIN-2-YL)-CARYOLANE gamma-LACTONE]	50.1%	26.83%
CC(C)C[C@H]1C(=O)N2CCC[C@H]2[C@]2(O)O[C@](NC(=O)[C@@H]3C=C4c5cccc6[nH]c(Br)c(c56)C[C@H]4N(C)C3)(C(C)C)C(=O)N12.CS(=O)(=O)O [BROMOCRIPTINE MESYLATE]	84.69%	67.37%

SMILES	residual activity [1]	residual activity [2]
CN(C)CCC(c1ccc(Br)cc1)c1ccccn1.O=C(O)/C=C\C(=O)O (stereo not drawn) [BROMPHENIRAMINE MALEATE]	90.7%	88.52%
Oc1c(Br)cc(Br)c2cccnc12 [BROXYQUINOLINE]	75.68%	57.32%
COc1cc2c(cc1OC)[C@@]13CCN4CC5=CCO[C@H]6CC(=O)N2[C@H]1[C@H]6[C@H]5C[C@H]43 [BRUCINE]	229.8%	117.9%
CCCC(=O)Nc1ncnc2c1ncn2[C@@H]1O[C@@H]2COP(=O)(O)O[C@H]2[C@H]1OC(=O)CCC [BUCLADESINE]	88.95%	116%
COc1ccc(-c2cc(=O)c3c(O)cc(O[C@H]4O[C@H](CO[C@@H]5O[C@@H](C)[C@H](O)[C@@H](O)[C@H]5O)[C@@H](O)[C@H](O)[C@H]4O)cc3o2)cc1 [BUDDLEOFLAVONOLOSIDE]	212.4%	69.14%
CCCC1O[C@@H]2C[C@H]3[C@@H]4CCC5=CC(=O)C=C[C@]5(C)[C@H]4[C@@H](O)C[C@]3(C)[C@]2(C(=O)CO)O1 (stereo partly drawn) [BUDESONIDE]	73%	43.76%
CCCCOc1ccc(CC(=O)NO)cc1 [BUFEXAMAC]	92.18%	89.04%
CCCCN1CCCCC1C(=O)Nc1c(C)cccc1C.Cl (stereo not drawn) [BUPIVACAINE HYDROCHLORIDE]	94.2%	97.15%
CS(=O)(=O)OCCCCOS(C)(=O)=O [BUSULFAN]	98.16%	113.7%
CCCCN(CCCC)CCCOC(=O)c1ccc(N)cc1 [BUTACAINE]	114.4%	93.87%
CCCCOC(=O)c1ccc(N)cc1 [BUTAMBEN]	124.9%	159.2%
CCC[C@H]1CC2=C(C[C@@H](CC)CC3=C1C(=O)OC3=O)C(=O)OC2=O [BYSSOCHLAMIC ACID]	102.5%	87.32%
CC(=O)OC[C@@]1(O)C[C@@]23CC[C@@H]4c5ccoc5CC[C@@]4(C)[C@@H]2CC[C@@H]1C3 [CAFESTOL ACETATE]	89.68%	108.6%
O=C(/C=C/c1ccc(O)c(O)c1)OCCc1ccccc1 [CAFFEIC ACID PHENETHYL ESTER]	143.5%	254%
O=C(O)/C=C/c1ccc(O)c(O)c1 [CAFFEIC ACID]	94%	69.6%
Cn1c(=O)c2c(ncn2C)n(C)c1=O [CAFFEINE]	90.35%	103.6%
CC[C@@]1(O)C(=O)OCc2c1cc1n(c2=O)Cc2cc3ccccc3nc2-1 [CAMPTOTHECIN]	107.3%	74.81%
N=C(N)NOCC[C@H](N)C(=O)O [CANAVANINE]	91.69%	101.6%
CCOc1nc2cccc(C(=O)OC(C)OC(=O)OC3CCCCC3)c2n1Cc1ccc(-c2ccccc2-c2nnn[nH]2)cc1 (stereo not drawn) [CANDESARTAN CILEXETIL]	5.967%	10.55%
C[C@]12CCC(=O)C=C1C=C[C@@H]1[C@@H]2CC[C@@]2(C)[C@H]1CC[C@@]21CCC(=O)O1 [CANRENONE]	78.65%	32.01%
C[C@@]12C(=O)OC(=O)[C@]1(C)[C@H]1CC[C@@H]2O1 [CANTHARIDIN]	105.7%	102.5%
C[C@@H]1NC(=O)[C@@H](N)CNC(=O)[C@H](C2CCNC(=N)N2)NC(=O)/C(=C/NC(N)=O)NC(=O)[C@H](CNC(=O)CC(N)CCCN)NC1=O.N=C1NCCC([C@@H]2NC(=O)/C(=C/NC(N)=O)NC(=O)[C@H](CNC(=O)CC(N)CCCN)NC(=O)[C@H](CO)NC(=O)[C@@H](N)CNC2=O)N1.O=S(=O)(O)O.O=S(=O)(O)O (stereo partly drawn) [CAPREOMYCIN SULFATE] (H-[Dap]S[Dap](ξβ3hOrn)[ΔAla(Z-3-ureido)][X1]; lactam 1-C)	80.84%	89.76%
